Patent publication US11464779B2, “Pharmaceutical formulation of palbociclib and a preparation method thereof” (Shenzhen Pharmacin Co., Ltd., priority 2016, dated 2022)

Legend:
[1] = co-dissolution of API of palbociclib and acidic auxiliary material in a solvent; format: physicochemical; details: co-dissolved with pharmaceutically acceptable acidic auxiliary material; solvent e.g. water
Description: The present invention also provides a method for the preparation of a solid dispersion, comprising: mixing palbociclib with an acidic auxiliary material; adding a solvent (including but not limited to water, ethanol, acetone and a mixture thereof, preferably water or a mixture thereof with other solvents, e.g. the mixture of water and ethanol, the mixture of water and acetone, etc.) for dissolving or dispersing; adding a hydrophilic high-molecular material, dissolving or dispersing evenly; and removing the solvent by heating, for example, evaporating the solvent to dry by vacuum drying or heating drying or freeze drying or other drying ways, in order to achieve the purpose of dispersing the drug in the high-molecular solid carrier to a high degree, so as to prepare the solid dispersion.
In the preparation of the solid dispersion of the present invention, the concentration of the API of palbociclib in the solvent (e.g., water) can be up to 50 mg/ml or more, thereby improving the preparation efficiency of the solid dispersion.

[2] = dynamic solubility test in buffer at pH 6.0 with stirring; format: physicochemical; details: phosphate buffer pH 6.0, stirring for 60 minutes
Description: 62.5 mg of the solid dispersion prepared in Example 3 (containing 12.5 mg of the API of palbociclib in proportion) and 12.5 mg of the API of palbociclib were weighed separately, placed into two 100 ml beakers, respectively, and marked with T1 and T2. 90 ml of phosphate buffer (pH 6.0) was added to the two beakers respectively and a magnetic stir bar was placed therein. The two beakers were placed on a magnetic stirrer separately. 1 ml of the solution was removed separately from each of the beakers at the time points of 5, 10, 20, 40, and 60 minutes and filtered through a 0.45 μm micro PES polyethersulfone filter membrane. The filtrate was analyzed by high performance liquid chromatography, the content of the API of palbociclib was determined and the dissolution percentage was calculated.

[3] = according to WO2005/005426; cited from earlier work

Question: Which results are given for `CC(=O)c1c(C)c2cnc(Nc3ccc(N4CCNCC4)cn3)nc2n(C2CCCC2)c1=O` [API of palbociclib, palbociclib]?
Answer: concentration of the API of palbociclib in the solvent [1]: ≥ 50000 µg/mL; dynamic solubility (dissolution percentage) [2]: 58%; solubility in water [3]: poor
